# Results: PubChem BioAssay AID1963830 (Molecular Pharmacology Branch, DTP, NCI, 2024)
# Tested on: 922993-354-T-J3-PDC complex spheroid viability
# Assay: Anticancer human tumor 922993-354-T-J3-PDC patient-derived endometrial carcinoma cell line growth inhibition [POLQ]
# Details: for IC50: curve of first compound; for viability, T/C: stronger effect = lower value
# How it was run: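 Patient-derived tumour cells were co-cultured with HUVEC and mesenchymal stem cells as multicellular spheroids at 37 °C. They were treated with POLQ inhibitors (novobiocin, ART-558, RP6685) alone or combined with other agents. Top concentrations were at or near clinical Cmax (otherwise 10 microM; SN-38 at 1 microM), decreasing in half-log steps.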
# [1] = second compound 0.0316 µM, first compound 0.0316 µM
# [2] = second compound 0.0316 µM, first compound 0.1 µM
# [3] = second compound 0.0316 µM, first compound 0.316 µM
# [4] = second compound 0.0316 µM, first compound 1 µM
# [5] = second compound 0.0316 µM, first compound 3.16 µM
# [6] = second compound 0.0316 µM, first compound 10 µM
# [7] = second compound 0.1 µM, first compound 0.0316 µM
# [8] = second compound 0.1 µM, first compound 0.1 µM
# [9] = second compound 0.1 µM, first compound 0.316 µM
# [10] = second compound 0.1 µM, first compound 1 µM
# [11] = second compound 0.1 µM, first compound 3.16 µM
# [12] = second compound 0.1 µM, first compound 10 µM
# [13] = second compound 0.316 µM, first compound 0.0316 µM
# [14] = second compound 0.316 µM, first compound 0.1 µM
# [15] = second compound 0.316 µM, first compound 0.316 µM
# [16] = second compound 0.316 µM, first compound 1 µM
# [17] = second compound 0.316 µM, first compound 3.16 µM
# [18] = second compound 0.316 µM, first compound 10 µM
# [19] = second compound 1 µM, first compound 0.0316 µM
# [20] = second compound 1 µM, first compound 0.1 µM
# [21] = second compound 1 µM, first compound 0.316 µM
# [22] = second compound 1 µM, first compound 1 µM
# [23] = second compound 1 µM, first compound 3.16 µM
# [24] = second compound 1 µM, first compound 10 µM
# [25] = second compound 3.16 µM, first compound 0.0316 µM
# [26] = second compound 3.16 µM, first compound 0.1 µM
# [27] = second compound 3.16 µM, first compound 0.316 µM
# [28] = second compound 3.16 µM, first compound 1 µM
# [29] = second compound 3.16 µM, first compound 3.16 µM
# [30] = second compound 3.16 µM, first compound 10 µM
# [31] = second compound 10 µM, first compound 0.0316 µM
# [32] = second compound 10 µM, first compound 0.1 µM
# [33] = second compound 10 µM, first compound 0.316 µM
# [34] = second compound 10 µM, first compound 1 µM
# [35] = second compound 10 µM, first compound 3.16 µM
# [36] = second compound 10 µM, first compound 10 µM
# 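Also: spheroids exposed to the agents for one week.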
# 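For viability, T/C in this document: 100% = DMSO vehicle control wells.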
smiles,measurement,setting,value
CCc1cc2c(N3CCc4c(cc(Cn5ccnc5)cc4-c4cn(C)nc4C(F)(F)F)C3=O)cc(C)nc2c(OC)n1 + COC1C(OC(N)=O)C(O)C(Oc2ccc3c(O)c(NC(=O)c4ccc(O)c(CC=C(C)C)c4)c(=O)oc3c2C)OC1(C)C,IC50,second compound 0.0316 µM,> 10 µM
same,IC50,second compound 0.1 µM,> 10 µM
same,IC50,second compound 0.316 µM,> 10 µM
same,IC50,second compound 1 µM,> 10 µM
same,IC50,second compound 3.16 µM,> 10 µM
same,IC50,second compound 10 µM,> 10 µM
same,"viability, T/C",[1],113%
same,"viability, T/C",[2],98.7%
same,"viability, T/C",[3],99.7%
same,"viability, T/C",[4],107%
same,"viability, T/C",[5],99.8%
same,"viability, T/C",[6],80.5%
same,"viability, T/C",[7],111%
same,"viability, T/C",[8],94.3%
same,"viability, T/C",[9],108%
same,"viability, T/C",[10],98.1%
same,"viability, T/C",[11],104%
same,"viability, T/C",[12],88.9%
same,"viability, T/C",[13],103%
same,"viability, T/C",[14],103%
same,"viability, T/C",[15],93.7%
same,"viability, T/C",[16],108%
same,"viability, T/C",[17],94.1%
same,"viability, T/C",[18],88.1%
same,"viability, T/C",[19],108%
same,"viability, T/C",[20],111%
same,"viability, T/C",[21],103%
same,"viability, T/C",[22],99.2%
same,"viability, T/C",[23],90.2%
same,"viability, T/C",[24],82.4%
same,"viability, T/C",[25],95.9%
same,"viability, T/C",[26],106%
same,"viability, T/C",[27],108%
same,"viability, T/C",[28],95%
same,"viability, T/C",[29],86.2%
same,"viability, T/C",[30],80.6%
same,"viability, T/C",[31],92.8%
same,"viability, T/C",[32],89.1%
same,"viability, T/C",[33],87.5%
same,"viability, T/C",[34],92.9%
same,"viability, T/C",[35],92.4%
same,"viability, T/C",[36],74.3%
CC1COCCN1c1cc(C2(S(C)(=N)=O)CC2)nc(-c2ccnc3[nH]ccc23)n1 (stereo unspecified) + COC1C(OC(N)=O)C(O)C(Oc2ccc3c(O)c(NC(=O)c4ccc(O)c(CC=C(C)C)c4)c(=O)oc3c2C)OC1(C)C,IC50,second compound 0.0316 µM,9.95 µM
same,IC50,second compound 0.1 µM,7.81 µM
same,IC50,second compound 0.316 µM,> 10 µM
same,IC50,second compound 1 µM,> 10 µM
same,IC50,second compound 3.16 µM,8.35 µM
same,IC50,second compound 10 µM,8.17 µM
same,"viability, T/C",[1],94.7%
same,"viability, T/C",[2],94.6%
same,"viability, T/C",[3],108%
same,"viability, T/C",[4],105%
same,"viability, T/C",[5],80.4%
same,"viability, T/C",[6],49.8%
same,"viability, T/C",[7],105%
same,"viability, T/C",[8],92.2%
same,"viability, T/C",[9],95.6%
same,"viability, T/C",[10],93.2%
same,"viability, T/C",[11],80.2%
same,"viability, T/C",[12],41.5%
same,"viability, T/C",[13],81.1%
same,"viability, T/C",[14],105%
same,"viability, T/C",[15],106%
same,"viability, T/C",[16],101%
same,"viability, T/C",[17],87.2%
same,"viability, T/C",[18],52.5%
same,"viability, T/C",[19],102%
same,"viability, T/C",[20],101%
same,"viability, T/C",[21],92.5%
same,"viability, T/C",[22],88.6%
same,"viability, T/C",[23],72.6%
same,"viability, T/C",[24],52.8%
same,"viability, T/C",[25],91.8%
same,"viability, T/C",[26],103%
same,"viability, T/C",[27],103%
same,"viability, T/C",[28],85.7%
same,"viability, T/C",[29],77%
same,"viability, T/C",[30],44.9%
same,"viability, T/C",[31],89.1%
same,"viability, T/C",[32],84.7%
same,"viability, T/C",[33],96%
same,"viability, T/C",[34],84.2%
same,"viability, T/C",[35],64.7%
same,"viability, T/C",[36],46.9%
C=CCn1c(=O)c2cnc(Nc3ccc(N4CCN(C)CC4)cc3)nc2n1-c1cccc(C(C)(C)O)n1 + COC1C(OC(N)=O)C(O)C(Oc2ccc3c(O)c(NC(=O)c4ccc(O)c(CC=C(C)C)c4)c(=O)oc3c2C)OC1(C)C,IC50,second compound 0.0316 µM,> 1 µM
same,IC50,second compound 0.1 µM,> 1 µM
same,IC50,second compound 0.316 µM,> 1 µM
same,IC50,second compound 1 µM,> 1 µM
same,IC50,second compound 3.16 µM,> 1 µM
same,IC50,second compound 10 µM,> 1 µM
same,"viability, T/C","second compound 0.0316 µM, first compound 0.00316 µM",91.7%
same,"viability, T/C","second compound 0.0316 µM, first compound 0.01 µM",105%
same,"viability, T/C",[1],97.4%
same,"viability, T/C",[2],101%
same,"viability, T/C",[3],118%
same,"viability, T/C",[4],94.9%
same,"viability, T/C","second compound 0.1 µM, first compound 0.00316 µM",94%
same,"viability, T/C","second compound 0.1 µM, first compound 0.01 µM",96.3%
same,"viability, T/C",[7],101%
same,"viability, T/C",[8],102%
same,"viability, T/C",[9],106%
same,"viability, T/C",[10],103%
same,"viability, T/C","second compound 0.316 µM, first compound 0.00316 µM",101%
same,"viability, T/C","second compound 0.316 µM, first compound 0.01 µM",104%
same,"viability, T/C",[13],85%
same,"viability, T/C",[14],95.4%
same,"viability, T/C",[15],102%
same,"viability, T/C",[16],84.9%
same,"viability, T/C","second compound 1 µM, first compound 0.00316 µM",108%
same,"viability, T/C","second compound 1 µM, first compound 0.01 µM",95.7%
same,"viability, T/C",[19],88.9%
same,"viability, T/C",[20],96.2%
same,"viability, T/C",[21],100%
same,"viability, T/C",[22],93.4%
same,"viability, T/C","second compound 3.16 µM, first compound 0.00316 µM",94.4%
same,"viability, T/C","second compound 3.16 µM, first compound 0.01 µM",97.7%
same,"viability, T/C",[25],101%
same,"viability, T/C",[26],91.1%
same,"viability, T/C",[27],102%
same,"viability, T/C",[28],91.3%
same,"viability, T/C","second compound 10 µM, first compound 0.00316 µM",94.6%
same,"viability, T/C","second compound 10 µM, first compound 0.01 µM",69.8%
same,"viability, T/C",[31],78%
same,"viability, T/C",[32],88.8%
same,"viability, T/C",[33],106%
same,"viability, T/C",[34],81.2%
